Here are results for 19 compounds from patent publication US20240018105A1, “TROPOLONE DERIVATIVES AND TAUTOMERS THEREOF FOR IRON REGULATION IN ANIMALS” (Kinesid Therapeutics, Inc., priority 2019, published 2024).

The nature of data set [1]: Ligand facilitated Fe(III) efflux from liposomes. The following applies: 10 uM ligand concentration; for Liposome Fe transport kefflux at 10 10 μM: Table 1; for Liposome Fe transport Kefflux at 10 μM: Table 2. The protocol:
Assay 1: Ligand Facilitated Fe(III) Efflux from Liposomes Preparation of POPC (1-palmitoyl-2-oleoyl-sn-glycero-3-phosphocholine): Cholesterol Liposomes:
A 1M buffer solution of MES and Tris was prepared by dissolving 121.14 grams of Tris base and 213.25 grams of MES hydrate in 500 mL of MilliQ water and adjusted to pH7.0 using an […] HCl solution before bringing the total volume of the solution to 1 L. A 500 mM solution of FeCl3 was prepared by dissolving 0.811 grams of anhydrous FeCl3 in 10 mL of a 0.1M H2SO4 aqueous solution. Inside buffer is prepared in a 50 mL falcon tube, which was added with 25 mL of MilliQ water, 1.61 g of sodium citrate, 1.5 mL of the above FeCl3 solution, and 2.5 mL of the 1M MES/Tris HCl buffer (pH=7.0), and finally additional MilliQ H2O to bring to a 50 mL final volume.
Lipid solution is prepared by dissolving 206.9 mg of POPC (1-palmitoyl-2-oleoyl-sn-glycero-3-phosphocholine) and 8.6 mg of cholesterol in 10 mL of ethanol.
The lipids solution and the inside buffer solution are independently loaded into 10 mL luer lock syringes for loading into a virgin cartridge on a Precision Nanosystems NanoAssembler to prepare unilamaller liposomes with the following parameters: 7.5 mL total volume, 1.5:1 mixing ratio of inside buffer:lipids solution, 8 mL/min flow rate, ambient temperature, 0.35 mL start waste, and 0.05 mL of end waste. 7.5 mL of liposomes is harvested for purification on a 6-inch long, 1-inch diameter Sephadex G-50 column wetted in 600 mM sodium ascorbate and 50 mM MES/Tris HCl pH 7.0 buffer. This buffer also serves as the column running buffer. The crude liposome solution is carefully loaded with minimal volume of running buffer above the top of the Sphadex, allowed to enter the matrix, and the column is run with the continued addition of running buffer. The eluting liposomes, observed as a milky and turbid solution, are collected until free iron begins to elute (observed as a deep purple color) and the fractions are pooled for phosphorus quantitation.
Phosphorus content of eluted liposomes was determined by the process outlined below. 10 uL of liposome elution and a running buffer blank are added to a 5 mL glass vial containing 450 uL of a 8.9 M aqueous H2SO4 solution, the mixture is heated to 225° C. for 25 minutes in an aluminum heat block to hydrolyze POPC and cooled for 5 minutes. 200 ul of a 30% hydrogen peroxide aqueous solution is added to each vial and heated to 225° C. for 25 minutes. After cooling, the phosphorus content was determined using an Abcam Phosphate Assay kit, with buffer subtracted phosphorus levels determined against a standard curve of phosphate included in the kit. Liposomes were diluted to 1 mM phosphate in Running Buffer for use in assays after accounting for dilutions made during phospholipid digestion.
Determination of the rate at which a small molecule ligand liberates (transport) Ferric iron from liposomes is performed in clear bottom black 384-well plates on a Spectramax i3x set to read the absorbance at 562 nm in the kinetic mode every 60 seconds for 120 minutes. 1 uL of serially diluted DMSO stock solution of a small molecule ligand is added to wells in triplicate to give the final concentrations of 40, 20, 10, 5, 2.5, and 1.25 uM of the ligand at 80 μL final volume, followed by addition of 1 μL of 100 mM Ferrozine in water to give a final concentration of 1 mM ferrozine. 78 uL of liposomes diluted to 1 mM phosphorus in running buffer is added to wells as quickly as possible (using a digital repeater mulchannel pipette) with the kinetic read initiated as rapidly as possible after addition of liposomes to all wells. Typically, eight compounds at six concentrations are tested in triplicate simultaneously.
Upon completion of kinetic read, the data for individual reads is fitted to a single phase association regression with the equation Y=(Y0−YMax)^(−kX)+YMax, with Y being the 562 absorbance value and X being time in minutes. […]

The test system of data set [2] is DMT1-deficient Caco-2 cells. In words: shDMT1-Caco2 55Fe transport assay. In kind it is cell-based. Particulars: Caco-2. From the text:
Assay 2: shDMT1-Caco2 ^55Fe Transport Assay to Assess Ligand Ability in Transporting Fe (III)
Cells: DMT1-deficient Caco-2 cells (alias: “shDMT1,” or “4A” cells) were from Grillo et al. Science, 2017, and were cryopreserved in liquid nitrogen prior to use.
Reagents and supplies: ^55FeCl3 was obtained from PerkinElmer (Boston, MA). Iron(III) chloride (FeCl3) hexahydrate was obtained from Sigma. Dulbecco's Modified Eagle Medium (DMEM), fetal bovine serum (FBS), L-glutamine, MEM nonessential amino acids, penicillin-streptomycin, G418, formic acid, methanol, high-purity water, ammonium formate, dimethyl sulfoxide (DMSO) were purchased from Fisher Scientific. Propranolol, atenolol and carbutamide were obtained from Sigma-Aldrich Chemical Company (St Louis, MO). Scintillation cocktail was obtained from Research Product International Co. (Mount Prospect, IL). Stericup filter system (PES membrane, 0.22 um pore size) was purchased from Fisher Scientific. Coming item #3378 24-well transwell insert plates. Test articles: known compounds hinokitiol and deferiprone were purchased from Sigma. They are tested side by side with the small molecule ligands disclosed in this application. DMSO stocks (10 mM, which is 1,000× of the 10 μM dose level) of hinokitiol or test articles were prepared. A stock solution of 25 mM deferiprone in DMSO was prepared. The DMSO stock solutions were stored at −20° C. or below when not in use.
The growth medium was prepared according to the following table
Apical media (serum free DMEM, 10 mM MES, pH 6.5) was prepared. Apical master mix media was prepared fresh with the addition of 200 nM ^55Fe before each experiment. For the negative control propranolol and atenolol wells, 200 nM of non-radioactive iron was used.
The basolateral media was serum-free DMEM, 10 mM HEPES, 2% bovine serum albumin (BSA), pH 7.4.
For each experiment, cells were seeded into the 24-well transwell plates (0.5 mL of 50,000 cells/mL) with growth media. The basolateral companion plate was loaded with 1 mL of growth media. After 12-24 hr, both the apical and basolateral chamber were replaced with growth media. The apical media was changed 3× per week for 21-28 days, including a media change exactly 48 hr before the assay date.
On the assay day, the TEER values were measured and the average TEER values was obtained. Individual wells with TEER vaule >35% lower than the average of all wells were excluded. For the qualified wells, the apical layer (twice) and basolaterial (once) chambers were washed with PBS. The basolateral companion plate was then filled with 1 mL of basolateral media. Via addition down the side-wall of the apical well, 300 μL per well of the apical assay master mix, with the indicated dose level of test article, was added. Each dose was tested in triplicate. The plates were incubated (5% CO2 and 90% humidity at 37° C.) for the indicated timepoints. At each indicated timepoint, the basolateral supernatant was gently mixed via pipetting, and 200 μL of the basolateral supernatant was transferred to scintillation vials. To each scintillation counting vial, 5 mL of scintillation cocktail fluid was added. For each scintillation vial, the radioactivity (CPM) was determined with liquid scintillation counter LS6500. The counting time per vial was 5 min.
All raw CPM values are divided by the average value of blank DMSO solution to give a fold of change above the DMSO value. The mean and standard deviation of each compound at each concentration level and at each time point measured was calculated to give the fold change (fc) value.
For rank order compounds, the fc value of a ligand at 4 h time point is further divided by the fold change (fc) value of hinokitiol (a positive control compound) at an equimolar concentration to arrive at the FC (normalized fold of change) value. Data reported in Tables 1 and 2 is 4 hr time point FC=fc-ligand @ 3 uM/fc-hino @ 3 uM, and FC hino=1.
In general terms: Caco-2 cells form a polarised layer with tight junctions and transporters.

Consider `COc1nccc(-c2ccc(O)c(=O)cc2)n1.O=C(O)C(F)(F)F` [Ex.38, 2-hydroxy-5-(2-methoxypyrimidin-4-yl)cyclohepta-2,4,6-trien-1-one], for which, in data set [1], the “Liposome Fe transport kefflux at 10 10 μM” value is recorded as 0.1-5. Further, in data set [2], the “Caco2 shDMT1 transport FC @ 3 μM, 4h” value is recorded as 0.01-0.5.
Taken in the same sequence, the figures for `COc1nccc(-c2cccc(=O)c(O)c2)n1.O=C(O)C(F)(F)F` [Ex.39, 2-hydroxy-4-(2-methoxypyrimidin-4-yl)cyclohepta-2,4,6-trien-1-one] were 0.1-5 and 0.01-0.5.
Turning to `O=c1cccc(-c2cnc(N3CCOCC3)nc2)cc1O` [Ex.42, 2-hydroxy-4-(2-morpholinopyrimidin-5-yl)cyclohepta-2,4,6-trien-1-one], in data set [1], the “Liposome Fe transport kefflux at 10 10 μM” value is given as 7.5-10. For the same compound, in data set [2], the “Caco2 shDMT1 transport FC @ 3 μM, 4h” value is 0.01-0.5.
The corresponding values for `Cc1c(F)cncc1-c1cccc(=O)c(O)c1` [Ex.46, 4-(5-fluoro-4-methylpyridin-3-yl)-2-hydroxycyclohepta-2,4,6-trien-1-one] are 5-7.5 and 0.01-0.5.
Taken in the same sequence, the figures for `O=c1c(O)ccccc1-c1ccncn1` [Ex.47, 2-hydroxy-7-(pyrimidin-4-yl)cyclohepta-2,4,6-trien-1-one] were 0.1-5 and 0.01-0.5.
The corresponding values for `O=C(O)C(F)(F)F.O=c1cccc(-c2ccncn2)cc1O` [Ex.48, 2-hydroxy-4-(pyrimidin-4-yl)cyclohepta-2,4,6-trien-1-one] are 0.1-5 and 0.01-0.5.
On to `O=c1ccc(-c2ccncn2)ccc1O` [Ex.49, 2-hydroxy-5-(pyrimidin-4-yl)cyclohepta-2,4,6-trien-1-one], for which the “Liposome Fe transport kefflux at 10 10 μM” value in data set [1] is reported as 0.1-5. Moreover, the “Caco2 shDMT1 transport FC @ 3 μM, 4h” value in data set [2] is 0.01-0.5.
Taken in the same sequence, the figures for `O=c1cccc(-c2ccncc2F)cc1O` [Ex.50, 4-(3-fluoropyridin-4-yl)-2-hydroxycyclohepta-2,4,6-trien-1-one] were 0.1-5 and 0.01-0.5.
Taken in the same sequence, the figures for `O=c1ccc(-c2cnccc2F)ccc1O` [Ex.51, 5-(4-fluoropyridin-3-yl)-2-hydroxycyclohepta-2,4,6-trien-1-one] were 5-7.5 and 0.01-0.5.
Taken in the same sequence, the figures for `O=c1cccc(-c2cnccc2F)cc1O` [Ex.52, 4-(4-fluoropyridin-3-yl)-2-hydroxycyclohepta-2,4,6-trien-1-one] were 0.1-5 and 0.01-0.5.
For `Cc1ncccc1-c1cccc(=O)c(O)c1` [Ex.53, 2-hydroxy-4-(2-methylpyridin-3-yl)cyclohepta-2,4,6-trien-1-one], the “Liposome Fe transport kefflux at 10 10 μM” value in data set [1] is recorded as 0.1-5. Further, the “Caco2 shDMT1 transport FC @ 3 μM, 4h” value in data set [2] is 0.01-0.5.
Taken in the same sequence, the figures for `COc1ncccc1-c1cccc(=O)c(O)c1` [Ex.54, 2-hydroxy-4-(2-methoxypyridin-3-yl)cyclohepta-2,4,6-trien-1-one] were 10-25 and 0.01-0.5.
Taken in the same sequence, the figures for `Cc1cc(-c2cccc(=O)c(O)c2)cnc1N` [Ex.56, 4-(6-amino-5-methylpyridin-3-yl)-2-hydroxycyclohepta-2,4,6-trien-1-one] were 0.1-5 and 0.01-0.5.
Taken in the same sequence, the figures for `Cc1ncc(F)cc1-c1cccc(=O)c(O)c1` [Ex.58, 4-(5-fluoro-2-methylpyridin-3-yl)-2-hydroxycyclohepta-2,4,6-trien-1-one] were 0.1-5 and 0.01-0.5.
As to `Cc1ncc(-c2ccc(O)c(=O)cc2)cc1F` [Ex.59, 5-(5-fluoro-6-methylpyridin-3-yl)-2-hydroxycyclohepta-2,4,6-trien-1-one], the “Liposome Fe transport kefflux at 10 10 μM” value in data set [1] is given as 5-7.5. Besides, the “Caco2 shDMT1 transport FC @ 3 μM, 4h” value in data set [2] is listed as 0.01-0.5.
Taken in the same sequence, the figures for `CC(C)c1ccc(O)c(=O)c(-c2cncc(F)c2)c1` [Ex.61, 2-(5-fluoropyridin-3-yl)-7-hydroxy-4-isopropylcyclohepta-2,4,6-trien-1-one] were 7.5-10 and 0.01-0.5.
For the compound `O=c1ccccc(-c2cccc(F)n2)c1O` [Ex.69, 3-(6-fluoropyridin-2-yl)-2-hydroxycyclohepta-2,4,6-trien-1-one], in data set [1], the “Liposome Fe transport Kefflux at 10 μM” value is 10-25. In addition, in data set [2], the “Caco2 shDMT1 transport FC @ 3 μM, 4h” value was 0.01-0.5.
`O=c1ccccc(-c2cc(F)ccn2)c1O` [Ex.70, 3-(4-fluoropyridin-2-yl)-2-hydroxycyclohepta-2,4,6-trien-1-one]: the “Liposome Fe transport Kefflux at 10 μM” value in data set [1] was 10-25. Moreover, in data set [2], the “Caco2 shDMT1 transport FC @ 3 μM, 4h” value is reported as 0.01-0.5.
Taken in the same sequence, the figures for `O=c1ccccc(-c2cncs2)c1O` [Ex.75, 2-hydroxy-3-(thiazol-5-yl)cyclohepta-2,4,6-trien-1-one] were 0.1-5 and 0.5-1.
